Reference: patent US4564619A, “Carbostyril derivative” (Otsuka Pharmaceutical Co., Ltd., priority 1982, dated 1986)

Key:
[1] = tested on: collagen-induced aggregation in rabbit platelets; assay: Inhibition of collagen-induced platelet aggregation in rabbit platelet rich plasma; assay type: cell-based; details: Oryctolagus cuniculus, read-out: Inhibition rate of collagen-induced aggregation; for inhibition at 100 µM (stock): Concentration of the test compound solution 10^-4 mole; for inhibition at 10 µM (stock): Concentration of the test compound solution 10^-5 mole
Experimental: (§1) The platelet aggregation inhibitory effect was measured by using a Platelet Aggregation Tracer Model PAT-6M (manufactured by Nikoh Bio-Science Co., Ltd.) by a method according to Kimura, et al., [IGAKU-NO-AYUMI (Progress in Medicine), Vol. 114, No. 9, pp. 718-727, Aug. 30, 1980, and Nature, pp. 927-929, 1962].
(§2) The blood sample used for the test was a 1:9 (by volume) mixture of "3.8%-CITRATE"® (a registered trademark for 3.8%-sodium citrate, manufactured by Green Cross Corp.) and whole blood collected from rabbits. Said sample was subjected to 10-minute centrifugal separation at 1,000 r.p.m. (200xG) to obtain a platelet rich plasma (PRP). The PRP thus obtained was separated, and the remaining blood sample was further subjected to 15-minute centrifugal separation at 3,000 r.p.m. (2,000xG) to obtain a platelet poor plasma (PPP).
(§3) The number of platelets in the PRP was counted by the Brecher-Clonkite Method, and the PRP was diluted with the PPP to prepare a PRP sample with a platelet concentration of 600,000/microliter to prepare for an adenosine diphosphate (ADP)-induced aggregation test, and a collagen-induced aggregation test. 0.2 Milliliter of the PRP sample was added to 2 microliters of a solution of a test compound of predetermined concentration and this mixture was placed in a 37° C. thermostat for one minute. Then 20 microliters of an ADP or collagen solution was added to the mixture. In this test, the ADP solution was prepared by adjustment to a concentration of 7.5×10^-5 M by using Auren-Beronal buffer solution (pH 7.35). Further, the collagen solution was prepared by adjustment to a concentration of 200 micrograms/ml by using collagen reagent of "Holm"® (manufactured by Hormon-Chemie Munchen, GmbH.) which was diluted wih a physiological saline solution.
(§4) The transmittance of the resultant test mixture was determined and the change of transmittance was recorded by using the aggregometer at a stirrer speed of 1,100 r.p.m.
(§5) The platelet aggregation inhibitory effect of the test compound was measured in terms of inhibition rate (%) with respect to the aggregation rate of the controls. The aggregation rate was calculated from the following formula.
(§6) Aggregation rate=[(c-a)/(b-a)]×100
(§7) The percent inhibition is calculated from the following formula.
(§8) Inhibition rate (%)=[(A-B)/A]×100
(§9) The inhibitory effect of the test compounds on collagen-induced aggregation in rabbit platelets is shown in Table 1, similarly such effect on ADP-induced aggregation in rabbit platelets is shown in Table 2.

[2] = tested on: ADP-induced aggregation in rabbit platelets; assay: Inhibition of ADP-induced platelet aggregation in rabbit platelet rich plasma; assay type: cell-based; details: Oryctolagus cuniculus, read-out: Inhibition rate of ADP-induced aggregation; for inhibition at 100 µM (stock): Concentration of the test compound solution 10^-4 mole; for inhibition at 10 µM (stock): Concentration of the test compound solution 10^-5 mole
Experimental: as §1, §2, §3, §4, §5, §6, §7, §8, §9

[3] = Change of blood pressure, intravenous administration, anesthetized dog; assay type: in vivo; design: unit not given here; details: femoral artery
Experimental: The change of blood flow in coronary artery and the change of blood pressure were measured by a method according to Yakura et al., [Japan Journal of Pharmacology, Vol. 57, pages 380-391 (1961)] and according to Taira, et al. [Clin. Exp. Pharmacol. Physiol., Vol. 6, pages 301-316, (1976)].
An adult bastard dog of either sex weighing 8-13 kg was anesthetized with sodium pentobarbital at the rate of 30 mg/kg by intraveneous administration, then the dog was fixed in supination and was theracotomized under a condition of forced breathing. After another intraveneous administration of sodium heparin at the rate of 500 U/kg, 100 U/kg per hour, the dog was subjected to the following experiments.
(2) Intraveneous administration
Morawitz's cannula was cannulated to the coronary sinus venosus through the auricula dextra cordis, and the blood in vein was circulated to the right carotid. The blood flow was measured by an electromagnetic blood flow meter equipped with a blood flow observation probe in the extracorporeal circulation path of the vein. The systolic force was measured by a systolometer (pick-up) placed at the left ventricle of heart, the blood pressure was measured from the femoral artery, and the heart rate was measured from the pulse. A compound to be tested was administered through the cannula being cannulated in femoral vein. The increased amount of the blood flow in coronary artery after the administration of the test compound is shown in Table 4, also the change of blood pressure is shown in Table 5.

SMILES	inhibition at 100 µM (stock) [1] [%]	inhibition at 100 µM (stock) [2] [%]	Change of blood pressure ([3]; 3 micrograms/kg)	Change of blood pressure ([3]; 10 micrograms/kg)	Change of blood pressure ([3]; 30 micrograms/kg)	Change of blood pressure ([3]; 100 micrograms/kg)	inhibition at 10 µM (stock) [1] [%]	inhibition at 10 µM (stock) [2] [%]	Change of blood pressure ([3]; 300 micrograms/kg)
C=CCOc1ccc(OCCCCOC(=O)C2=C(C)NC(C)=C(C(=O)OC)C2c2cccc([N+](=O)[O-])c2)c2c1NC(=O)CC2 (centres unmarked) [Compound 19, 5-{4-[2,6-Dimethyl-5-methoxycarbonyl-4-(3-nitrophenyl)-1,4-dihydropyridin-3-carboxy]-butoxy}-8-alloyloxy-3,4-dihydrocarbostyril]	17	17	-22	-34	-44	-55	–	–	–
COC(=O)C1=C(C)NC(C)=C(C(=O)OCCCOc2cccc3[nH]c(=O)ccc23)C1c1cccc([N+](=O)[O-])c1 (centres unmarked) [Compound 22, 5-{3-[2,6-Dimethyl-5-methoxycarbonyl-4-(3-nitrophenyl)-1,4-dihydropyridin-3-carboxy]-propoxy}carbostyril]	100	62	–	-2	-8	-18	21	13	-36
COC(=O)C1=C(C)NC(C)=C(C(=O)OCCCOc2cc(=O)[nH]c3ccccc23)C1c1cccc([N+](=O)[O-])c1 (centres unmarked) [Compound 37, 4-{3-[2,6-Dimethyl-5-methoxycarbonyl-4-(3-nitrophenyl)-1,4-dihydropyridin-3-carboxy]propoxy}carbostyril]	15	17	–	–	-1	-5	–	–	-18
COC(=O)C1=C(C)NC(C)=C(C(=O)OCCCOc2ccc3[nH]c(=O)cc(C)c3c2)C1c1cccc([N+](=O)[O-])c1 (centres unmarked) [Compound 38, 4-Methyl-6-{3-[2,6-dimethyl-5-methoxycarbonyl-4-(3-nitrophenyl)-1,4-dihydropyridin-3-carboxy]propoxy}carbostyril]	45	31	–	-2	-10	-35	–	–	–
COC(=O)C1=C(C)NC(C)=C(C(=O)OCCCCOc2ccc3c(c2)CCC(=O)N3)C1c1ccccc1C (centres unmarked) [Compound 29, 6-{4-[2,6-Dimethyl-5-methoxycarbonyl-4-(2-methylphenyl-1,4-dihydropyridin-3-carboxy)]-butoxy}-3,4-dihydrocarbostyril]	69	59	-7	-23	-45	-70	–	–	-80
COC(=O)C1=C(C)NC(C)=C(C(=O)OCCCCOc2ccc3[nH]c(=O)ccc3c2)C1c1ccccc1C(F)(F)F (centres unmarked) [Compound 24, 6-{4-[2,6-Dimethyl-5-methoxycarbonyl-4-(2-trifluoromethylphenyl)-1,4-dihydropyridin-3-carboxy]butoxy}carbostyril]	100	100	–	-6	-18	-30	30	62	-44
COC(=O)C1=C(C)NC(C)=C(C(=O)OCCCCOc2ccc3c(c2)CCC(=O)N3)C1c1ccccc1 (centres unmarked) [Compound 28, 6-[4-(2,6-Dimethyl-5-methoxycarbonyl-4-phenyl-1,4-dihydropyridin-3-carboxy)butoxy]-3,4-dihydrocarbostyril]	63	52	-1	-10	-7	-20	–	–	-47
COC(=O)C1=C(C)NC(C)=C(C(=O)OCCOc2ccc3c(c2)CCC(=O)N3)C1c1ccccc1[N+](=O)[O-] (centres unmarked) [Compound 21, 6-{2-[2,6-Dimethyl-5-methoxycarbonyl-4-(2-nitrophenyl)-1,4-dihydropyridin-3-carboxy]-ethoxy}-3,4-dihydrocarbostyril]	100	58	–	-7	-12	-28	99	27	-42
COC(=O)C1=C(C)NC(C)=C(C(=O)OCCCOc2ccc3[nH]c(=O)ccc3c2)C1c1ccccc1 (centres unmarked) [Compound 44, 6-[3-(2,6-Dimethyl-5-methoxycarbonyl-4-phenyl-1,4-dihydropyridin-3-carboxy)propoxy]-carbostyril]	100	100	–	-1	-3	-6	25	20	-52
COC(=O)C1=C(C)NC(C)=C(C(=O)OCCCCOc2ccc3c(c2)CCC(=O)N3)C1c1ccccc1Cl (centres unmarked) [Compound 27, 6-{4-[2,6-Dimethyl-5-methoxycarbonyl-4-(2-chlorophenyl)-1,4-dihydropyridin-3-carboxy]-butoxy}-3,4-dihydrocarbostyril]	61	42	-4	-10	-27	-52	–	–	–
COC(=O)C1=C(C)NC(C)=C(C(=O)OCCCCOc2ccc3[nH]c(=O)ccc3c2)C1c1cccc([N+](=O)[O-])c1 (centres unmarked) [Compound 15, 6-{4-[2,6-Dimethyl-5-methoxycarbonyl-4-(3-nitrophenyl)-1,4-dihydropyridin-3-carboxy]-butoxy}carbostyril]	100	100	–	–	-3	-9	26	20	-27
COC(=O)C1=C(C)NC(C)=C(C(=O)OCC(COc2ccc3[nH]c(=O)ccc3c2)OC(C)=O)C1c1cccc([N+](=O)[O-])c1 (centres unmarked) [Compound 43, 6-{3-[2,6-Dimethyl-5-methoxycarbonyl-4-(3-nitrophenyl)-1,4-dihydropyridin-3-carboxy]-2-acetoxypropoxy}carbostyril]	100	100	–	–	-4	-16	100	100	-23
COC(=O)C1=C(C)NC(C)=C(C(=O)OCCOc2ccc3[nH]c(=O)ccc3c2)C1c1ccccc1[N+](=O)[O-] (centres unmarked) [Compound 20, 6-{2-[2,6-Dimethyl-5-methoxycarbonyl-4-(2-nitrophenyl)-1,4-dihydropyridin-3-carboxy]-ethoxy}carbostyril]	100	100	–	–	-4	-8	100	65	-32
